Laboratory results: ChEMBL document CHEMBL4828726, “Modification of 5-methylphenanthridium from benzothiazoles to indoles as potent FtsZ inhibitors: Broadening the antibacterial spectrum toward vancomycin-resistant enterococci” (Eur J Med Chem, 2021)
≈ marks a conversion by molar mass, not a printed value.

Tests used:
Type in all cases: functional
Bacillus subtilis = test: Antibacterial activity against penicillin-susceptible Bacillus subtilis ATCC 9372 assessed as inhibition of bacterial growth measured after 20 hrs by two-fold microdilution assay
Bacillus pumilus = test: Antibacterial activity against penicillin-susceptible Bacillus pumilus CMCC63202 assessed as inhibition of bacterial growth measured after 20 hrs by two-fold microdilution assay
Staphylococcus aureus [1] = test: Antibacterial activity against erythromycin-susceptible Staphylococcus aureus ATCC 25923 assessed as inhibition of bacterial growth measured after 20 hrs by two-fold microdilution assay
Streptococcus pyogenes [2] = test: Antibacterial activity against erythromycin-susceptible Streptococcus pyogenes assessed as inhibition of bacterial growth measured after 20 hrs by two-fold microdilution assay
Escherichia coli = test: Antibacterial activity against penicillin-susceptible Escherichia coli ATCC 25922 assessed as inhibition of bacterial growth measured after 20 hrs by two-fold microdilution assay
Pseudomonas aeruginosa = test: Antibacterial activity against penicillin-susceptible Pseudomonas aeruginosa ATCC 27853 assessed as inhibition of bacterial growth measured after 20 hrs by two-fold microdilution assay
Staphylococcus aureus [3] = test: Antibacterial activity against methicillin-resistant Staphylococcus aureus ATCC43300 assessed as inhibition of bacterial growth measured after 20 hrs by two-fold microdilution assay
Staphylococcus aureus [4] = test: Antibacterial activity against penicillin-resistant Staphylococcus aureus ATCC 31007 assessed as inhibition of bacterial growth measured after 20 hrs by two-fold microdilution assay
Staphylococcus aureus [5] = test: Antibacterial activity against clinical isolate Staphylococcus aureus C1 assessed as inhibition of bacterial growth measured after 20 hrs by two-fold microdilution assay
[6] = system: Staphylococcus epidermidis; test: Antibacterial activity against penicillin-resistant Staphylococcus epidermidis assessed as inhibition of bacterial growth measured after 20 hrs by two-fold microdilution assay
Streptococcus pyogenes [7] = test: Antibacterial activity against erythromycin-resistant Streptococcus pyogenes assessed as inhibition of bacterial growth measured after 20 hrs by two-fold microdilution assay
Enterococcus faecalis [8] = test: Antibacterial activity against Vancomycin-susceptible Enterococcus faecalis ATCC 29212 assessed as inhibition of bacterial growth measured after 20 hrs by two-fold microdilution assay
Enterococcus faecium [9] = test: Antibacterial activity against Vancomycin-susceptible Enterococcus faecium ATCC 19434 assessed as inhibition of bacterial growth measured after 20 hrs by two-fold microdilution assay
Enterococcus faecium [10] = test: Antibacterial activity against Vancomycin-resistant Enterococcus faecium ATCC 51559 assessed as inhibition of bacterial growth measured after 20 hrs by two-fold microdilution assay
Enterococcus faecalis [11] = test: Antibacterial activity against Vancomycin-resistant Enterococcus faecalis ATCC 51299 assessed as inhibition of bacterial growth measured after 20 hrs by two-fold microdilution assay

C[n+]1cc2ccccc2c2cc(-c3nc4ccccc4s3)ccc21.[Cl-]
MIC (Bacillus subtilis): > 64 µg/mL | MIC (Bacillus pumilus): > 64 µg/mL | MIC (Staphylococcus aureus [1]): > 64 µg/mL | MIC (Streptococcus pyogenes [2]): > 64 µg/mL | MIC (Escherichia coli): > 64 µg/mL | MIC (Pseudomonas aeruginosa): > 64 µg/mL | MIC (Staphylococcus aureus [3]): > 64 µg/mL | MIC (Staphylococcus aureus [4]): > 64 µg/mL | MIC (Staphylococcus aureus [5]): > 64 µg/mL | MIC [6]: > 64 µg/mL

CCCn1ccc2ccc(-c3ccc4c(c3)c3cc(C)ccc3c[n+]4C)cc21.[Cl-]
MIC (Bacillus subtilis): 64 µg/mL | MIC (Bacillus pumilus): > 64 µg/mL | MIC (Staphylococcus aureus [1]): 16 µg/mL | MIC (Streptococcus pyogenes [2]): > 64 µg/mL | MIC (Escherichia coli): > 64 µg/mL | MIC (Pseudomonas aeruginosa): > 64 µg/mL | MIC (Staphylococcus aureus [3]): 64 µg/mL | MIC (Staphylococcus aureus [4]): > 64 µg/mL | MIC (Staphylococcus aureus [5]): 32 µg/mL | MIC (Streptococcus pyogenes [7]): 32 µg/mL | MIC [6]: > 64 µg/mL

CCCCCn1ccc2ccc(-c3ccc4c(c3)c3c(C)cccc3c[n+]4C)cc21.[Cl-]
MIC (Bacillus subtilis): 2 µg/mL | MIC (Bacillus pumilus): 4 µg/mL | MIC (Staphylococcus aureus [1]): 2 µg/mL | MIC (Streptococcus pyogenes [2]): 16 µg/mL | MIC (Escherichia coli): > 64 µg/mL | MIC (Pseudomonas aeruginosa): > 64 µg/mL | MIC (Staphylococcus aureus [3]): 2 µg/mL | MIC (Staphylococcus aureus [4]): 4 µg/mL | MIC (Staphylococcus aureus [5]): 2 µg/mL | MIC (Streptococcus pyogenes [7]): 16 µg/mL | MIC [6]: 8 µg/mL

Cc1cccc2c1c[n+](C)c1ccc(-c3nc4ccccc4s3)cc21.[Cl-]
MIC (Bacillus subtilis): > 64 µg/mL | MIC (Bacillus pumilus): > 64 µg/mL | MIC (Staphylococcus aureus [1]): 16 µg/mL | MIC (Streptococcus pyogenes [2]): 32 µg/mL | MIC (Escherichia coli): > 64 µg/mL | MIC (Pseudomonas aeruginosa): > 64 µg/mL | MIC (Staphylococcus aureus [3]): > 64 µg/mL | MIC (Staphylococcus aureus [4]): > 64 µg/mL | MIC (Staphylococcus aureus [5]): > 64 µg/mL | MIC (Streptococcus pyogenes [7]): 64 µg/mL | MIC [6]: > 64 µg/mL

O=C(O)c1cn(C2CC2)c2cc(N3CCNCC3)c(F)cc2c1=O [CIPROFLOXACIN]
MIC (Bacillus subtilis): 4 µg/mL (≈ 12.1 µM) | MIC (Staphylococcus aureus [1]): 4 µg/mL (≈ 12.1 µM) | MIC (Staphylococcus aureus [4]): > 64 µg/mL | MIC [6]: > 64 µg/mL | MIC (Enterococcus faecalis [8]): 32 µg/mL (≈ 96.6 µM) | MIC (Enterococcus faecium [9]): > 64 µg/mL | MIC (Enterococcus faecium [10]): > 64 µg/mL | MIC (Enterococcus faecalis [11]): > 64 µg/mL

CCCCCn1ccc2ccc(-c3ccc4c(c3)c3cc(C)ccc3c[n+]4C)cc21.[Cl-]
MIC (Bacillus subtilis): 4 µg/mL | MIC (Bacillus pumilus): 8 µg/mL | MIC (Staphylococcus aureus [1]): 2 µg/mL | MIC (Streptococcus pyogenes [2]): 8 µg/mL | MIC (Escherichia coli): > 64 µg/mL | MIC (Pseudomonas aeruginosa): > 64 µg/mL | MIC (Staphylococcus aureus [3]): 4 µg/mL | MIC (Staphylococcus aureus [4]): 8 µg/mL | MIC (Staphylococcus aureus [5]): 4 µg/mL | MIC (Streptococcus pyogenes [7]): 16 µg/mL | MIC [6]: 8 µg/mL

Cc1cccc2c[n+](C)c3ccc(-c4ccc5ccn(CC(C)C)c5c4)cc3c12.[Cl-]
MIC (Bacillus subtilis): 4 µg/mL | MIC (Bacillus pumilus): 8 µg/mL | MIC (Staphylococcus aureus [1]): 2 µg/mL | MIC (Streptococcus pyogenes [2]): 8 µg/mL | MIC (Escherichia coli): > 64 µg/mL | MIC (Pseudomonas aeruginosa): > 64 µg/mL | MIC (Staphylococcus aureus [3]): 4 µg/mL | MIC (Staphylococcus aureus [4]): 8 µg/mL | MIC (Staphylococcus aureus [5]): 4 µg/mL | MIC (Streptococcus pyogenes [7]): 16 µg/mL | MIC [6]: 8 µg/mL

Cc1cccc2c[n+](C)c3ccc(-c4ccc5ccn(C)c5c4)cc3c12.[Cl-]
MIC (Bacillus subtilis): 1 µg/mL | MIC (Bacillus pumilus): 8 µg/mL | MIC (Staphylococcus aureus [1]): 2 µg/mL | MIC (Streptococcus pyogenes [2]): 8 µg/mL | MIC (Escherichia coli): > 64 µg/mL | MIC (Pseudomonas aeruginosa): > 64 µg/mL | MIC (Staphylococcus aureus [3]): 8 µg/mL | MIC (Staphylococcus aureus [4]): 32 µg/mL | MIC (Staphylococcus aureus [5]): 8 µg/mL | MIC (Streptococcus pyogenes [7]): 4 µg/mL | MIC [6]: 16 µg/mL

Cc1ccc2c(c1)c[n+](C)c1ccc(-c3nc4ccccc4s3)cc21.[Cl-]
MIC (Bacillus subtilis): 4 µg/mL | MIC (Bacillus pumilus): 32 µg/mL | MIC (Staphylococcus aureus [1]): 32 µg/mL | MIC (Streptococcus pyogenes [2]): 16 µg/mL | MIC (Escherichia coli): > 64 µg/mL | MIC (Pseudomonas aeruginosa): > 64 µg/mL | MIC (Staphylococcus aureus [3]): > 64 µg/mL | MIC (Staphylococcus aureus [4]): > 64 µg/mL | MIC (Staphylococcus aureus [5]): > 64 µg/mL | MIC (Streptococcus pyogenes [7]): 16 µg/mL | MIC [6]: > 64 µg/mL

Cc1ccc2c[n+](C)c3ccc(-c4ccc5ccn(CC(C)C)c5c4)cc3c2c1.[Cl-]
MIC (Bacillus subtilis): 4 µg/mL | MIC (Bacillus pumilus): 4 µg/mL | MIC (Staphylococcus aureus [1]): 2 µg/mL | MIC (Streptococcus pyogenes [2]): 4 µg/mL | MIC (Escherichia coli): > 64 µg/mL | MIC (Pseudomonas aeruginosa): > 64 µg/mL | MIC (Staphylococcus aureus [3]): 4 µg/mL | MIC (Staphylococcus aureus [4]): 8 µg/mL | MIC (Staphylococcus aureus [5]): 4 µg/mL | MIC (Streptococcus pyogenes [7]): 8 µg/mL | MIC [6]: 16 µg/mL

Cc1ccc2c[n+](C)c3ccc(-c4ccc5ccn(C)c5c4)cc3c2c1.[Cl-]
MIC (Bacillus subtilis): 2 µg/mL | MIC (Bacillus pumilus): 16 µg/mL | MIC (Staphylococcus aureus [1]): 4 µg/mL | MIC (Streptococcus pyogenes [2]): 4 µg/mL | MIC (Escherichia coli): > 64 µg/mL | MIC (Pseudomonas aeruginosa): > 64 µg/mL | MIC (Staphylococcus aureus [3]): 32 µg/mL | MIC (Staphylococcus aureus [4]): > 64 µg/mL | MIC (Staphylococcus aureus [5]): 8 µg/mL | MIC (Streptococcus pyogenes [7]): 4 µg/mL | MIC [6]: > 64 µg/mL

Cc1cccc2c[n+](C)c3ccc(-c4ccc5ccn(Cc6ccc(OC(F)(F)F)cc6)c5c4)cc3c12.[Cl-]
MIC (Bacillus subtilis): 8 µg/mL | MIC (Bacillus pumilus): 32 µg/mL | MIC (Staphylococcus aureus [1]): 2 µg/mL | MIC (Streptococcus pyogenes [2]): 16 µg/mL | MIC (Escherichia coli): > 64 µg/mL | MIC (Staphylococcus aureus [3]): 16 µg/mL | MIC (Staphylococcus aureus [4]): 8 µg/mL | MIC (Staphylococcus aureus [5]): 8 µg/mL | MIC (Streptococcus pyogenes [7]): 16 µg/mL | MIC [6]: 8 µg/mL | MIC (Enterococcus faecalis [8]): 8 µg/mL | MIC (Enterococcus faecium [9]): 4 µg/mL | MIC (Enterococcus faecium [10]): 4 µg/mL | MIC (Enterococcus faecalis [11]): 8 µg/mL

COc1ccc2c(c1)c[n+](C)c1ccc(-c3nc4ccccc4s3)cc21.[Cl-]
MIC (Bacillus subtilis): > 64 µg/mL | MIC (Bacillus pumilus): > 64 µg/mL | MIC (Staphylococcus aureus [1]): > 64 µg/mL | MIC (Streptococcus pyogenes [2]): > 64 µg/mL | MIC (Escherichia coli): > 64 µg/mL | MIC (Pseudomonas aeruginosa): > 64 µg/mL | MIC (Staphylococcus aureus [3]): > 64 µg/mL | MIC (Staphylococcus aureus [4]): > 64 µg/mL | MIC (Staphylococcus aureus [5]): > 64 µg/mL | MIC [6]: > 64 µg/mL

CCn1ccc2ccc(-c3ccc4c(c3)c3c(C)cccc3c[n+]4C)cc21.[Cl-]
MIC (Bacillus subtilis): 4 µg/mL | MIC (Bacillus pumilus): 16 µg/mL | MIC (Staphylococcus aureus [1]): 2 µg/mL | MIC (Streptococcus pyogenes [2]): 8 µg/mL | MIC (Escherichia coli): > 64 µg/mL | MIC (Pseudomonas aeruginosa): > 64 µg/mL | MIC (Staphylococcus aureus [3]): 8 µg/mL | MIC (Staphylococcus aureus [4]): 32 µg/mL | MIC (Staphylococcus aureus [5]): 8 µg/mL | MIC (Streptococcus pyogenes [7]): 8 µg/mL | MIC [6]: 16 µg/mL

CN[C@H](CC(C)C)C(=O)N[C@H]1C(=O)N[C@@H](CC(N)=O)C(=O)N[C@H]2C(=O)N[C@H]3C(=O)N[C@H](C(=O)N[C@H](C(=O)O)c4cc(O)cc(O)c4-c4cc3ccc4O)[C@H](O)c3ccc(c(Cl)c3)Oc3cc2cc(c3O[C@@H]2O[C@H](CO)[C@@H](O)[C@H](O)[C@H]2O[C@H]2C[C@](C)(N)[C@H](O)[C@H](C)O2)Oc2ccc(cc2Cl)[C@H]1O [VANCOMYCIN]
MIC (Enterococcus faecalis [8]): 2 µg/mL (≈ 1.38 µM) | MIC (Enterococcus faecium [10]): > 64 µg/mL | MIC (Enterococcus faecalis [11]): > 64 µg/mL

COc1ccc2c[n+](C)c3ccc(-c4nc5ccccc5s4)cc3c2c1.[Cl-]
MIC (Bacillus subtilis): > 64 µg/mL | MIC (Bacillus pumilus): > 64 µg/mL | MIC (Staphylococcus aureus [1]): > 64 µg/mL | MIC (Streptococcus pyogenes [2]): > 64 µg/mL | MIC (Escherichia coli): > 64 µg/mL | MIC (Pseudomonas aeruginosa): > 64 µg/mL | MIC (Staphylococcus aureus [3]): > 64 µg/mL | MIC (Staphylococcus aureus [4]): > 64 µg/mL | MIC (Staphylococcus aureus [5]): > 64 µg/mL | MIC [6]: > 64 µg/mL

Cc1ccc2c[n+](C)c3ccc(-c4nc5ccccc5s4)cc3c2c1.[Cl-]
MIC (Bacillus subtilis): 1 µg/mL | MIC (Bacillus pumilus): 4 µg/mL | MIC (Staphylococcus aureus [1]): 16 µg/mL | MIC (Streptococcus pyogenes [2]): 4 µg/mL | MIC (Escherichia coli): > 64 µg/mL | MIC (Pseudomonas aeruginosa): > 64 µg/mL | MIC (Staphylococcus aureus [3]): > 64 µg/mL | MIC (Staphylococcus aureus [4]): > 64 µg/mL | MIC (Staphylococcus aureus [5]): > 64 µg/mL | MIC (Streptococcus pyogenes [7]): 4 µg/mL | MIC [6]: > 64 µg/mL
